Assay [1] has as its system rat primary optic nerve astrocytes. The experiment in a line: ROS generation (CellROX Green) in rat primary optic nerve astrocytes, Example 2. Format: cell-based. Conditions: 14 μM. On the procedure:
For proving the efficacy of DGA Activation in reducing ROS in infectious disorders an in vitro study using rat primary optic nerve astrocytes has been conducted. […] As an important part of the study the cell viability was estimated 6 hours after tBHP administration by two methods, i.e. LDH and MTT assays. Cell viability was measured using the in-house MTT assay (of Experimentica Ltd., Finland) and CytoTox96 non-radioactive cytotoxicity assay (G1780, Promega) in response to oxidative stress primary optic nerve astrocytes. The production of reactive oxygen species (ROS) was measured using CellROX Green (Invitrogen) and isolate RNA in RNALater solution (Ambion). Primary optical nerve astrocytes where obtained from 4-week-old male Wister rats (6 animals' altogether) and where cultured to obtain sufficient amount of cells for the experiment. In the experiment cells where plated at 5000 cells per well and allowed to adhere for 24 hrs prior to the administration of compounds for 48 hrs (replenished every 24 hrs). After 24 hrs the compounds were removed, and readded with new medium for 1 hr, prior to the administration of 85 μM tBHP (FIG. 3c). MTT and LDH assay were performed after 6 hrs and ROS detection using CellROX green was performed over a time course of 4 hrs. D-glyceric acid was mixed into the medium in beforehand in soluble calcium salt format (DGAcs). After mixing the calcium is liberated to the medium from the D-glyceric acid. D-glycerate is formed.

Assay [2] concerns acute upper respiratory infection (nose and throat). The assay can be described thus: Healing from acute upper respiratory infection in S1, Example 1c. In kind it is in vivo, human. An excerpt: After successful healing process in November 2014 (Example 1b), S1 was almost excited when they got acute upper respiratory infection when traveling abroad around New Year 2015. Symptoms: a virus infection in throat and rhinitis had lasted for three days before initiation of the DGA activation. S1 felt also feverish during this three-day period (unfortunately there was no thermometer around during the travel).
Administration on the fourth day of the infection: In the morning at 0940 am S1 took 2×250 mg of D-glyceric acid calcium salt dehydrate mixed into the water. Now, swelling and aching of the throat was quite substantial like had been the case already on the previous night, also some fever was felt.
At 0330 pm S1 took 2×180 mg of D-glyceric acid calcium salt mixed into water to keep the DGA Activation alive. Swelling had reduced a little but this could be due to circadian variation. Third dose of the day (2×180 mg) was received at 0915 pm. Throat continued to feel better towards the night, alleviation of the symptoms compared to the morning and to the previous night was significant.
Next morning at 0715 1×200 mg was received. […] However, some swelling in the throat remained but no pain. On top of the DGA Activation 1×500 mg of paracetamol was received at 0840 am, mimicking combination medication like e.g. Tylenol Cold.
Second 1×200 mg dose was received at 0200 pm. […]

The test system of assay [3] is eimeria acervulina, eimeria maxima and eimeria tenella. The experiment in a line: Coccidial challenge in broiler chickens, Example 1g. In kind it is in vivo. The conditions noted are these: for overall lesion score, difference to 0-control: day 21.

Structures are written as SMILES.

For `O=C(O)[C@H](O)CO` [DGA, D-glyceric acid], the “ROS generation vs 0-controls” value in assay [1] (0 tBHP (healthy conditions)) was “lower”. The “increase of average ROS generation in 15 minutes, tBHP group compared to without tBHP” value in assay [1] (85 μM tBHP, 0 min to 15 min, control approximately 20%) is “approximately 30%”. The “ROS level vs control groups” value in assay [1] (15, 30 and 60 minutes after bolus 85 μM tBHP) is “statistically significantly lower”. Moreover, the fever next morning result in assay [2] (S1, morning after first day of dosing) is “No fever was observed”. In assay [2] (S1, started on fourth day of infection, 2×250 mg then 2×180 mg doses), the “time to conquer the acute upper respiratory infection” value is 12 to 48 h. For the same compound, the “mortality after 14 days” value in assay [3] (DGA1 group) is on record as “no mortality”; in assay [3] (DGA½ group, one bird clearly ill at slaughtering), “no mortality”. The “oocyst count at 7 and 11 days post infection” value in assay [3] (DGA1 group) was “decreased in DGA1 group already in 7 days to similar levels than in P-control”. Also, the “oocyst count at 5 days (acute phase)” value in assay [3] (DGA1 group) is reported as “less than in 0-control”. For the same compound, the “feed conversion rate (FCR) vs 0-control” value in assay [3] (DGA1 group, appr. 9 mg/kg/day DGAcs in feed, 14-35, 21-35, 28-35 days, p-values 0.04 to 0.05) was “statistically significantly better”; in assay [3] (DGA½ group, appr. 4.5 mg/kg/day), “better compared to 0-control”. Moreover, the “overall lesion score, difference to 0-control” value in assay [3] (DGA1 group) and in assay [3] (DGA½ group) was “statistically significant only in P-control” in each case. Moreover, the “body weight gain (14-35 days) vs 0-control” value in assay [3] (DGA1 group, p-value 0.002) is on record as “statistically very significantly higher”. The “difference in oocyst counts after the infection vs 0-control” value in assay [3] (DGA1 group, pairwise t-test p 0.04) is on record as “statistically significant”; in assay [3] (DGA½ group, pairwise t-test p 0.03) it was “statistically significant”. In assay [3] (DGA½ group), the “number of oocyst in 7 and 11 day measurements” value is “declined to almost similar levels than in P-control”.

Values taken from patent US20190008810A1, “METHOD FOR PREVENTION, TREATMENT AND ALLEVIATION OF INFECTIOUS DISEASES AND DISORDERS” (REPLICON HEALTH OY, priority 2016, published 2019).
